Tests used:
[1] = test system: HT-29; assay: Growth inhibitory activity was measured for human HT-29 tumor cell line.; format: functional; conditions: Homo sapiens, HT-29; read-out: ID50 (the source's name)
[2] = test system: DU-145; assay: The concentration levels of analogue evaluated for the polyamine and analogue levels in DU145 cells treated with the compound concentration of 5 uM on third day of treatment.; format: functional, cell-based; conditions: Homo sapiens
[3] = test system: DU-145; assay: The concentration levels of spermine (SP), evaluated for the polyamine and analogue levels in DU145 cells treated with the compound concentration of 5 uM on fthird day of treatment.; format: functional, cell-based; conditions: Homo sapiens
[4] = test system: U-251; assay: Growth inhibitory activity was measured for human U251MG NCI tumor cell line.; format: functional; conditions: read-out: ID50 (the source's name)
[5] = test system: DU-145; assay: The concentration levels of putrescine (PU) evaluated for the polyamine and analogue levels in DU145 cells treated with the compound concentration of 5 uM on third day of treatment.; format: functional, cell-based; conditions: Homo sapiens
[6] = test system: DU-145; assay: The concentration levels of analogue evaluated for the polyamine and analogue levels in DU145 cells treated with the compound concentration of 0 uM on third day of treatment.; format: functional, cell-based; conditions: Homo sapiens
[7] = test system: DU-145; assay: The concentration levels of analogue evaluated for the polyamine and analogue levels in DU145 cells treated with the compound concentration of 0 uM on fifth day of treatment.; format: functional, cell-based; conditions: Homo sapiens
[8] = test system: DU-145; assay: The concentration levels of analogue evaluated for the polyamine and analogue levels in DU145 cells treated with the compound concentration of 5 uM on fifth day of treatment.; format: functional, cell-based; conditions: Homo sapiens
[9] = test system: DU-145; assay: The concentration levels of spermidine (SD), evaluated for the polyamine and analogue levels in DU145 cells treated with the compound concentration of 0 uM on third day of treatment.; format: functional, cell-based; conditions: Homo sapiens
[10] = test system: DU-145; assay: The concentration levels of putrescine (PU) evaluated for the polyamine and analogue levels in DU145 cells treated with the compound concentration of 0 uM on fifth day of treatment.; format: functional, cell-based; conditions: Homo sapiens
[11] = test system: DU-145; assay: The concentration levels of spermine (SP) evaluated for the polyamine and analogue levels in DU145 cells treated with the compound concentration of 5 uM on fifth day of treatment.; format: functional, cell-based; conditions: Homo sapiens
[12] = test system: DU-145; assay: The concentration levels of spermine (SP), evaluated for the polyamine and analogue levels in DU145 cells treated with the compound concentration of 0 uM on third day of treatment.; format: functional, cell-based; conditions: Homo sapiens
[13] = test system: A549; assay: Growth inhibitory activity was measured for human A549 tumor cell line.; format: functional; conditions: Homo sapiens, A549; read-out: ID50 (the source's name)
[14] = test system: DU-145; assay: The concentration levels of putrescine (PU) evaluated for the polyamine and analogue levels in DU145 cells treated with the compound concentration of 5 uM on fifth day of treatment.; format: functional, cell-based; conditions: Homo sapiens
[15] = test system: DU-145; assay: The concentration levels of spermine (SP) evaluated for the polyamine and analogue levels in DU145 cells treated with the compound concentration of 0 uM on fifth day of treatment.; format: functional, cell-based; conditions: Homo sapiens
[16] = test system: MCF7; assay: Growth inhibitory activity was measured for human MCF-7 tumor cell line.; format: functional; conditions: read-out: ID50 (the source's name)
[17] = test system: DU-145; assay: The concentration levels of spermidine (SD) evaluated for the polyamine and analogue levels in DU145 cells treated with the compound concentration of 5 uM on fifth day of treatment.; format: functional, cell-based; conditions: Homo sapiens
[18] = test system: PC-3; assay: Growth inhibitory activity was measured for human PC-3 tumor cell line.; format: functional; conditions: Homo sapiens, PC-3; read-out: ID50 (the source's name)
[19] = test system: DU-145; assay: The concentration levels of putrescine (PU) evaluated for the polyamine and analogue levels in DU145 cells treated with the compound concentration of 0. uM on third day of treatment.; format: functional, cell-based; conditions: Homo sapiens
[20] = test system: DU-145; assay: The concentration levels of spermidine (SD), evaluated for the polyamine and analogue levels in DU145 cells treated with the compound concentration of 5 uM on third day of treatment.; format: functional, cell-based; conditions: Homo sapiens
[21] = test system: DU-145; assay: The concentration levels of spermidine (SD) evaluated for the polyamine and analogue levels in DU145 cells treated with the compound concentration of 0 uM on fifth day of treatment.; format: functional, cell-based; conditions: Homo sapiens
[22] = test system: DU-145; assay: The concentration levels of spermidine (SD) evaluated in DU145 cells treated with the compound concentration of 5 uM on fifth day of treatment.; format: functional, cell-based; conditions: Homo sapiens
[23] = test system: DU-145; assay: The concentration levels of putrescine (PU) evaluated in DU145 cells treated with the compound concentration of 5 uM on third day of treatment.; format: functional, cell-based; conditions: Homo sapiens
[24] = test system: DU-145; assay: The concentration levels of analogue evaluated in DU145 cells treated with the compound concentration of 0.02 uM on fifth day of treatment.; format: functional, cell-based; conditions: Homo sapiens
[25] = test system: DU-145; assay: The concentration levels of analogue evaluated in DU145 cells treated with the compound concentration of 5 uM on third day of treatment.; format: functional, cell-based; conditions: Homo sapiens
[26] = test system: DU-145; assay: The concentration levels of putrescine (PU) evaluated in DU145 cells treated with the compound concentration of 0.02 uM on fifth day of treatment.; format: functional, cell-based; conditions: Homo sapiens
[27] = test system: DU-145; assay: The concentration levels of spermine (SP), evaluated in DU145 cells treated with the compound concentration of 0.02 uM on third day of treatment.; format: functional, cell-based; conditions: Homo sapiens
[28] = test system: DU-145; assay: Growth inhibitory activity was measured for human DU145 tumor cell line.; format: functional; conditions: Homo sapiens, DU-145; read-out: ID50 (the source's name)
[29] = test system: DU-145; assay: The concentration levels of analogue evaluated in DU145 cells treated with the compound concentration of 5 uM on fifth day of treatment.; format: functional, cell-based; conditions: Homo sapiens
[30] = test system: DU-145; assay: The concentration levels of spermidine (SD), evaluated in DU145 cells treated with the compound concentration of 0.02 uM on third day of treatment.; format: functional, cell-based; conditions: Homo sapiens
[31] = test system: DU-145; assay: The concentration levels of spermidine (SD), evaluated in DU145 cells treated with the compound concentration of 5 uM on third day of treatment.; format: functional, cell-based; conditions: Homo sapiens
[32] = test system: DU-145; assay: The concentration levels of spermine (SP) evaluated in DU145 cells treated with the compound concentration of 5 uM on fifth day of treatment.; format: functional, cell-based; conditions: Homo sapiens
[33] = test system: DU-145; assay: The concentration levels of spermidine (SD) evaluated in DU145 cells treated with the compound concentration of 0.02 uM on fifth day of treatment.; format: functional, cell-based; conditions: Homo sapiens
[34] = test system: DU-145; assay: The concentration levels of spermine (SP), evaluated in DU145 cells treated with the compound concentration of 5 uM on third day of treatment.; format: functional, cell-based; conditions: Homo sapiens
[35] = test system: DU-145; assay: The concentration levels of putrescine (PU) evaluated in DU145 cells treated with the compound concentration of 0.02 uM on third day of treatment.; format: functional, cell-based; conditions: Homo sapiens
[36] = test system: DU-145; assay: The concentration levels of analogue evaluated in DU145 cells treated with the compound concentration of 0.02 uM on third day of treatment.; format: functional, cell-based; conditions: Homo sapiens
[37] = test system: DU-145; assay: The concentration levels of spermine (SP) evaluated in DU145 cells treated with the compound concentration of 0.02 uM on fifth day of treatment.; format: functional, cell-based; conditions: Homo sapiens
[38] = test system: DU-145; assay: The concentration levels of putrescine (PU) evaluated in DU145 cells treated with the compound concentration of 5 uM on fifth day of treatment.; format: functional, cell-based; conditions: Homo sapiens

IC50 [13] [µM] | SMILES | Concentration (nM (10e6*cells)-1) [22] | Concentration (nM (10e6*cells)-1) [23] | Concentration (nM (10e6*cells)-1) [24] | Concentration (nM (10e6*cells)-1) [25] | Concentration (nM (10e6*cells)-1) [26] | Concentration (nM (10e6*cells)-1) [27] | Concentration (nM (10e6*cells)-1) [29] | Concentration (nM (10e6*cells)-1) [30] | Concentration (nM (10e6*cells)-1) [31] | Concentration (nM (10e6*cells)-1) [32] | Concentration (nM (10e6*cells)-1) [33] | Concentration (nM (10e6*cells)-1) [34] | Concentration (nM (10e6*cells)-1) [35] | Concentration (nM (10e6*cells)-1) [36] | Concentration (nM (10e6*cells)-1) [37] | Concentration (nM (10e6*cells)-1) [38] | further results
> 31.2 | CCNCCCNCC#CCNCCCNCC | – | – | – | – | – | – | – | – | – | – | – | – | – | – | – | – | IC50 [1]: > 31.2 µM; Concentration (nM (10e6*cells)-1) [2]: 2.16; Concentration (nM (10e6*cells)-1) [3]: 2.56; IC50 [4]: > 31.2 µM; Concentration (nM (10e6*cells)-1) [5]: 0.04; Concentration (nM (10e6*cells)-1) [6]: 0.06; Concentration (nM (10e6*cells)-1) [7]: 0.03; Concentration (nM (10e6*cells)-1) [8]: 1.71; Concentration (nM (10e6*cells)-1) [9]: 1.73; Concentration (nM (10e6*cells)-1) [10]: 0.03; Concentration (nM (10e6*cells)-1) [11]: 1.33; Concentration (nM (10e6*cells)-1) [12]: 3.13; Concentration (nM (10e6*cells)-1) [14]: 0.06; Concentration (nM (10e6*cells)-1) [15]: 1.55; IC50 [16]: > 31.2 µM; Concentration (nM (10e6*cells)-1) [17]: 0.59; IC50 [18]: > 31.2 µM; Concentration (nM (10e6*cells)-1) [19]: 0.11; Concentration (nM (10e6*cells)-1) [20]: 0.9; Concentration (nM (10e6*cells)-1) [21]: 1.55
0.25 | CCNCCCNC/C=C\CNCCCNCC | 0.02 | 0.06 | 0.03 | 2.76 | 0.04 | 2.99 | 2.54 | 1.79 | 0.02 | 0.07 | 1.73 | 0.09 | 0.11 | 0.04 | 1.71 | 0.03 | IC50 [28]: 0.05 µM
– | CCNCCCNCC1CCC1CNCCCNCC (stereo in doubt; 15) | 0.06 | 0.036 | 0.05 | 1.75 | 0.081 | 3.54 | 1.84 | 2.13 | 0.15 | 0.2 | 1.6 | 0.49 | 0.162 | 0.07 | 2.1 | 0.031 | –

Reference: ChEMBL document CHEMBL1131189, “Conformationally restricted analogues of 1N,12N-bisethylspermine: synthesis and growth inhibitory effects on human tumor cell lines” (1998)
